The text below walks through data of PMC8861431, “Tissue Pharmacokinetic Properties and Bystander Potential of Hypoxia-Activated Prodrug CP-506 by Agent-Based Modelling” (Frontiers in Pharmacology, 2022).

The subject of the experiment is HCT-116 WT cell line. The experiment is described as follows: Anti-proliferative IC50 assay (SRB). The note with it: for IC50: Homo sapiens, 4 h exposure. Type of experiment: cell-based, human. The text has this: The HCT-116 cell line was purchased from the American Type Culture Collection (Manassas, VA). A POR-overexpressing clone (POR-R) was generated by transfecting the parental cell line with a pBRP expression vector encoding an N-terminal truncated soluble version of the human POR gene ([Foehrenbacher et al., 2013a]; [Guise et al., 2020]). Ectopic expression is driven by the human cytomegalovirus (CMV) major immediate-early promoter. Downstream of POR is a human elongation factor-1 alpha (EF-1 alpha) promoter, which drives expression of mRuby and the puromycin resistance gene pac (puromycin N-acetyltransferase). A POR-null clone (PORG-ko) was generated as previously described ([Su et al., 2013]). POR-null clones were then transfected with a pEGFP-N1 plasmid encoding enhanced green fluorescent protein (EGFP) and geneticin resistance to permit identification upon co-culture ([Hong et al., 2018b]). Cell lines were maintained by weekly subculture in T-flasks containing alpha minimal essential medium (αMEM) with 5% foetal bovine serum (FBS) for a maximum of 24 passages or 90 days (whichever came first). The culture medium was further supplemented with 1 mg/ml geneticin or 2 µM puromycin for the routine maintenance of the POR-null and POR-overexpressing clones respectively. All cultures were re-established from STR-authenticated, mycoplasma negative frozen stocks.
Cells (700–1,000 per well) were seeded with 100 µl culture medium into 96-well plates and left to attach for 2 h in a humidified 37°C incubator. Compounds were prepared in culture medium and serially diluted (1:3) in the well volume. Plates were returned to a humidified 37°C incubator for the duration of the drug exposure (4 h). Aerobic experiments were performed under standard tissue culture conditions (21% O2), and the anoxic experiments were performed in parallel in a 5% H2/Pd catalyst anaerobic chamber (Shellab Bactron, Sheldon manufacturing Inc., Cornelius, OR) using pre-equilibrated media and plasticware. All anoxia experiments were conducted using a catalyst-scrubbed anaerobic chamber, unless otherwise specified, with gas oxygen measurements of <1 ppm O2. Cells were then washed three times and left to grow for 96 h before cell density determination using a sulforhodamine B (SRB) assay ([Vichai and Kirtikara, 2006]). To this end, the cells were fixed by layering 50 µl of trichloroacetic acid (40% w/v in MilliQ water) on top of the culture media (150 µl) in each well for 1 h at 4°C. Plates were rinsed under running tap water and stained with 50 µl of SRB (0.4% w/v in MilliQ water containing 1% v/v acetic acid) for 30 min at room temperature. Plates were rapidly destained by rinsing three times in tap water containing 1% (v/v) acetic acid. The stain was solubilized by adding 100 µl of 10 mM unbuffered Tris base to each well with gentle rocking for 1 h. Plates were read on a Biotek ELx808 Absorbance Microplate Reader at 490 nm using KC4 software. The IC50 value (concentration required to reduce staining to 50% of the untreated control on the same plate) for each compound was determined by interpolation using a 4-parameter logistic regression model.

Where two headings read alike, the source gives them in different places.

By IC50 is commonly meant the concentration at which inhibition is half-maximal. For the compound `CCN1CCN(C(=O)c2cc(N(CCBr)CCOS(C)(=O)=O)c(S(C)(=O)=O)cc2[N+](=O)[O-])CC1` [CP-506, 2-[(2-bromoethyl)-5-[(4-ethyl-1-piperazinyl)carbonyl]-2-(methylsulfonyl)-4-nitroanilino]ethyl methanesulfonate], the IC50 runs as follows: (anoxic <1 ppm O2, 96 h drug-free proliferation, read-out: Anoxic IC50 (anti-proliferative)) 12.8 ± 3.7 µM; (normoxic 21% O2, 96 h drug-free proliferation, read-out: Aerobic IC50 (anti-proliferative)) 257 ± 37 µM. Further, the “Fold lower IC50 under anoxic vs aerobic conditions” value (anti-proliferative assay) is on record as 20.1 fold.
